According to DBAASP:
Converted amounts (≈) assume the structure as drawn. “And” between values parts separate entries of the source, which are not always exact repeats. Equal entries are not always repeated.

Key:
Assay in all cases: ≥ marks a high value that may be exact or a test limit, other limits are often not marked, values filed in µg/mL are converted to µM
Micrococcus luteus = system: Micrococcus luteus
[1] = system: Staphylococcus epidermidis
Leuconostoc lactis = system: Leuconostoc lactis
Listeria innocua = system: Listeria innocua
Pasteurella multocida = system: Pasteurella multocida
Escherichia coli = system: Escherichia coli
Streptococcus uberis = system: Streptococcus uberis
Staphylococcus aureus = system: Staphylococcus aureus
Bacillus cereus = system: Bacillus cereus
[2] = system: Escherichia coli ATCC 25922
[3] = system: Escherichia coli NCTC 10418
Saccharomyces cerevisiae = system: Saccharomyces cerevisiae
[4] = system: Enterococcus faecalis ATCC 29212
[5] = system: Streptococcus pyogenes ATCC 19615
[6] = system: Candida parapsilosis ATCC 22019
[7] = system: Staphylococcus aureus ATCC 43300
[8] = system: Pseudomonas aeruginosa ATCC 27853
[9] = system: Staphylococcus aureus ATCC 25923
Escherichia coli ML-35p = system: Escherichia coli ML-35p
[10] = system: Klebsiella pneumoniae ATCC 13883
[11] = system: Candida albicans NCPF 1467
[12] = system: Staphylococcus aureus ST1065
[13] = system: Staphylococcus aureus NCTC 10788
[14] = system: Acinetobacter baumannii ATCC 19606
[15] = system: Staphylococcus aureus ATCC BAA-44
Klebsiella aerogenes = system: Klebsiella aerogenes
[16] = system: Pseudomonas aeruginosa PAO1

Question: With `CC[C@H](C)[C@H](NC(=O)[C@H](CC(=O)O)NC(=O)[C@H](Cc1ccccc1)NC(=O)[C@H](CC(C)C)NC(=O)CN)C(=O)N[C@H](C(=O)N[C@@H](CCCCN)C(=O)N[C@@H](CCCCN)C(=O)N[C@H](C(=O)N[C@H](C(=O)NCC(=O)N[C@H](C(=O)N[C@H](C(=O)N[C@@H](C)C(=O)NCC(=O)N[C@@H](CC(C)C)C(N)=O)[C@@H](C)CC)[C@@H](C)O)C(C)C)C(C)C)C(C)C` [GLFDIVKKVVGTIAGL] as the molecule, how does the MIC (Micrococcus luteus) read?
Answer: The MIC was 15.3 µM (≈ 25 µg/mL).

Question: What about the MIC [1] of the same molecule?
Answer: The MIC was 15.3 µM (≈ 25 µg/mL).

Question: And the MIC (Leuconostoc lactis)?
Answer: The MIC was 7.36 µM (≈ 12 µg/mL).

Question: What about the MIC (Listeria innocua) of the same molecule?
Answer: Its MIC is no less than 61.4 µM.

Question: What about the MIC (Pasteurella multocida) of the same molecule?
Answer: The MIC was no less than 61.4 µM.

Question: And the MIC (Escherichia coli)?
Answer: Its MIC is greater than 61.4 µM.

Question: And the MIC (Streptococcus uberis)?
Answer: Its MIC is 15.3 µM (≈ 25 µg/mL).

Question: And the MIC (Staphylococcus aureus)?
Answer: Its MIC is 15.3 µM (≈ 25 µg/mL).

Question: What about the MIC (Bacillus cereus) of the same molecule?
Answer: Its MIC is 15.3 µM (≈ 25 µg/mL).

Question: Which MIC [2] does the source give for `CC[C@H](C)[C@H](NC(=O)[C@H](CO)NC(=O)[C@H](C)NC(=O)[C@@H](NC(=O)CNC(=O)[C@H](CO)NC(=O)[C@@H](NC(=O)[C@@H](NC(=O)[C@H](Cc1cnc[nH]1)NC(=O)[C@@H]1CCCN1C(=O)[C@@H](NC(=O)[C@H](CC(C)C)NC(=O)[C@H](CO)NC(=O)[C@H](CC(C)C)NC(=O)[C@@H](N)Cc1ccccc1)[C@@H](C)CC)[C@@H](C)CC)C(C)C)C(C)C)C(=O)N[C@@H](C)C(=O)N[C@@H](CCCCN)C(=O)N[C@@H](Cc1cnc[nH]1)C(=O)N[C@@H](Cc1ccccc1)C(N)=O` [FLSLIPHIVSGVASIAKHF] here?
Answer: Its MIC is 70 µM (≈ 142 µg/mL).

Question: What about the MIC [3] of the same molecule?
Answer: The MIC was no less than 80 µM.

Question: And the MIC (Saccharomyces cerevisiae)?
Answer: The MIC was 12.5 µM (≈ 25.4 µg/mL).

Question: And the MIC [4]?
Answer: The MIC was 25 µM (≈ 50.9 µg/mL).

Question: What about the MIC [5] of the same molecule?
Answer: The MIC was 3.12 µM (≈ 6.35 µg/mL).

Question: What about the MIC [6] of the same molecule?
Answer: Its MIC is no less than 100 µM.

Question: And the MIC [7]?
Answer: The MIC was 6.25 µM (≈ 12.7 µg/mL).

Question: And the MIC [8]?
Answer: Its MIC is greater than 100 µM.

Question: What about the MIC [9] of the same molecule?
Answer: Its MIC is 6.25 µM (≈ 12.7 µg/mL).

Question: What about the MIC (Escherichia coli ML-35p) of the same molecule?
Answer: Its MIC is no less than 100 µM.

Question: And the MIC [10]?
Answer: The MIC was no less than 100 µM.

Question: What about the MIC [11] of the same molecule?
Answer: Its MIC is no less than 100 µM.

Question: And the MIC [12]?
Answer: The MIC was 6.25 µM (≈ 12.7 µg/mL).

Question: And the MIC [13]?
Answer: The MIC was 5 µM (≈ 10.2 µg/mL).

Question: What about the MIC [14] of the same molecule?
Answer: Its MIC is 6.25 µM (≈ 12.7 µg/mL).

Question: And the MIC [15]?
Answer: Its MIC is 6.25 µM (≈ 12.7 µg/mL).

Question: How did the MIC (Micrococcus luteus) turn out when `CC[C@H](C)[C@H](NC(=O)[C@H](CC(N)=O)NC(=O)[C@H](CCCCN)NC(=O)[C@@H](NC(=O)[C@@H](NC(=O)[C@H](CC(=O)O)NC(=O)[C@H](Cc1ccccc1)NC(=O)[C@H](CC(C)C)NC(=O)CN)[C@@H](C)CC)[C@@H](C)CC)C(=O)N[C@@H](Cc1ccccc1)C(=O)N[C@@H](CO)C(=O)NCC(=O)N[C@@H](CC(C)C)C(N)=O` [GLFDIIKNIFSGL] was run?
Answer: Its MIC is no less than 69.6 µM.

Question: And the MIC [1]?
Answer: The MIC was no less than 69.6 µM.

Question: What about the MIC (Leuconostoc lactis) of the same molecule?
Answer: The MIC was 17.4 µM (≈ 25 µg/mL).

Question: What about the MIC (Listeria innocua) of the same molecule?
Answer: Its MIC is no less than 69.6 µM.

Question: What about the MIC (Pasteurella multocida) of the same molecule?
Answer: Its MIC is no less than 69.6 µM.

Question: What about the MIC (Escherichia coli) of the same molecule?
Answer: Its MIC is greater than 69.6 µM.

Question: What about the MIC (Streptococcus uberis) of the same molecule?
Answer: The MIC was no less than 69.6 µM.

Question: And the MIC (Staphylococcus aureus)?
Answer: Its MIC is 69.6 µM (≈ 99.9 µg/mL).

Question: And the MIC (Bacillus cereus)?
Answer: The MIC was no less than 69.6 µM.

Question: Which MIC (Klebsiella aerogenes) does the source give for `CC(C)C[C@H](NC(=O)[C@H](CCCCN)NC(=O)[C@H](CCCCN)NC(=O)[C@H](Cc1ccccc1)NC(=O)[C@H](Cc1ccccc1)NC(=O)[C@H](CCCCN)NC(=O)[C@H](CCCCN)NC(=O)[C@H](Cc1ccccc1)NC(=O)[C@H](CCCN=C(N)N)NC(=O)[C@@H](N)CCCCN)C(=O)N[C@@H](CCCCN)C(=O)N[C@@H](CC(N)=O)C(=O)N[C@@H](CO)C(=O)N[C@H](C(=O)N[C@@H](CCCCN)C(=O)N[C@@H](CCCCN)C(=O)N[C@@H](CCCN=C(N)N)C(=O)N[C@@H](C)C(=O)N[C@@H](CCCCN)C(=O)N[C@@H](CCCCN)C(=O)N[C@@H](Cc1ccccc1)C(=O)N[C@@H](Cc1ccccc1)C(=O)N[C@@H](CCCCN)C(=O)N[C@@H](CCCCN)C(=O)O)C(C)C` [KRFKKFFKKLKNSVKKRAKKFFKK] here?
Answer: The MIC was 7.77 µM and 3.88 µM.

Question: What about the MIC [16] of the same molecule?
Answer: The MIC was 7.77 µM and 3.56 µM.
